ChEMBL document CHEMBL4043168, “The design and SAR of a novel series of 2-aminopyridine based LRRK2 inhibitors” (Bioorg Med Chem Lett, 2017)

What was measured:
[1] = biological target: Leucine-rich repeat serine/threonine-protein kinase 2 (Homo sapiens, UniProt Q5S007, G2019S); assay: Inhibition LRRK2 G2019S mutant (unknown origin) Ser935 phosphorylation in HEK293 cells; format: cell-based
[2] = biological target: 5'-AMP-activated protein kinase catalytic subunit alpha-2 (Homo sapiens) (UniProt P54646); assay: Inhibition of AMPKa2 labeling at conserved Lys2 (DLKPENVLLDAHMNAK) in human PBMC at 1 uM
[3] = biological target: Dual specificity mitogen-activated protein kinase kinase 7 (Homo sapiens) (UniProt O14733); assay: Inhibition of MAP2K7 conserved Lys2 (DVKPSNILLDER) in human PBMC at 1 uM
[4] = biological target: T1, Serine/threonine-protein kinase 4 (Homo sapiens) (UniProt Q13043); assay: Inhibition of MST1 conserved Lys1 ETGQIVAIKQVPVESDLQEIIK in human PBMC at 1 uM
T1 sequence (whole entry): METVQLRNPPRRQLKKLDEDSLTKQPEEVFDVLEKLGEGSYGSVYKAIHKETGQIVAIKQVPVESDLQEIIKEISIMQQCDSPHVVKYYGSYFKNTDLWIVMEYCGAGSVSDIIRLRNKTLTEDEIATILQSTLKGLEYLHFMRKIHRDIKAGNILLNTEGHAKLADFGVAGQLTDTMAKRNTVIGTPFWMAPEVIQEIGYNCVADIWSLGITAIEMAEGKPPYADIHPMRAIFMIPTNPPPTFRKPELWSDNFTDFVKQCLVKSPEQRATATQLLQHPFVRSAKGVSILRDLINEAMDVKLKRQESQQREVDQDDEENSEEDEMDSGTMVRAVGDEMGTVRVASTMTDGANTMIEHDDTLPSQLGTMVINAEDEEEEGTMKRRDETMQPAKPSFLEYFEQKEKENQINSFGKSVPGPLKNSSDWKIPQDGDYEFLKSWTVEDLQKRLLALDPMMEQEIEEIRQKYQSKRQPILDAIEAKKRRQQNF

[5] = biological target: Serine/threonine-protein kinase Nek8 (Homo sapiens) (UniProt Q86SG6); assay: Inhibition of NEK8 conserved Lys2 (DLKTQNILLDK) in human PBMC at 1 uM
[6] = biological target: Serine/threonine-protein kinase SIK3 (Homo sapiens) (UniProt Q9Y2K2); assay: Inhibition of QSK conserved Lys1 (VAIKIIDKTQLDEENLKK) in human PBMC at 1 uM
[7] = biological target: Serine/threonine-protein kinase Sgk3 (Homo sapiens) (UniProt Q96BR1); assay: Inhibition of SGK3 conserved Lys1 (FYAVKVLQK) in human PBMC at 1 uM
[8] = biological target: Serine/threonine-protein kinase TAO2 (Homo sapiens) (UniProt Q9UL54); assay: Inhibition of TAO2 conserved Lys2 (DVKAGNILLSEPGLVK) in human PBMC at 1 uM
[9] = biological target: T2, Serine/threonine-protein kinase ULK3 (Homo sapiens) (UniProt Q6PHR2); assay: Inhibition of ULK3 conserved Lys1 (EVVAIKCVAK) in human PBMC at 1 uM; settings: pooled result: one value given for 4 cell lines, strains, targets or settings
T2 sequence (whole entry): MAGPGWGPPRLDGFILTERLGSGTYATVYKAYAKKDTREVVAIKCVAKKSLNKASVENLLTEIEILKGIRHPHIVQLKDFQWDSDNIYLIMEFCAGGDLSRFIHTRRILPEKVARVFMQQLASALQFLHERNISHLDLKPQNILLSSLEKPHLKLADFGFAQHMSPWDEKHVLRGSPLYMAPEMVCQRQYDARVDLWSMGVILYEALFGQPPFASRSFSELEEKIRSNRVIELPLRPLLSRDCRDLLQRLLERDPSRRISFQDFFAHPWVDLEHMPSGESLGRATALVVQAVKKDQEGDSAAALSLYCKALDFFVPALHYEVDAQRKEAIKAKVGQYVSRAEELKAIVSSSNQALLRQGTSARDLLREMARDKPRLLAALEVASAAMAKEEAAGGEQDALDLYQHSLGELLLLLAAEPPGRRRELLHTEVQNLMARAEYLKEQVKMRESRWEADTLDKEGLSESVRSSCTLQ

[10] = biological target: Serine/threonine-protein kinase WNK2 (Homo sapiens) (UniProt Q9Y3S1); assay: Inhibition of Wnk2 activation Loop (IGDLGLATLKR) in human PBMC at 1 uM
[11] = biological target: Mitogen-activated protein kinase 3 (Homo sapiens) (UniProt P27361); assay: Inhibition of Erk1 ATP binding site (DLKPSNLLINTTCDLK) in human PBMC at 0.1 uM
[12] = biological target: Mitogen-activated protein kinase kinase kinase kinase 5 (Homo sapiens) (UniProt Q9Y4K4); assay: Inhibition of KHS1 conserved Lys1 (NVHTGELAAVKIIK) in human PBMC at 0.1 uM
[13] = biological target: Serine/threonine-protein kinase Nek4 (Homo sapiens) (UniProt P51957); assay: Inhibition of NEK4 conserved Lys2 (DLKTQNVFLTR) in human PBMC at 0.1 uM
[14] = biological target: Serine/threonine-protein kinase Nek7 (Homo sapiens) (UniProt Q8TDX7); assay: Inhibition of NEK7 conserved Lys1 (AACLLDGVPVALKK) in human PBMC at 0.1 uM
[15] = biological target: Serine/threonine-protein kinase SMG1 (Homo sapiens) (UniProt Q96Q15); assay: Inhibition of SMG1 ATP binding site (SYPYLFKGLEDLHLDER) in human PBMC at 0.1 uM
[16] = biological target: Mitogen-activated protein kinase kinase kinase 7 (Homo sapiens) (UniProt O43318); assay: Inhibition of TAK1 conserved Lys2 (DLKPPNLLLVAGGTVLK) in human PBMC at 0.1 uM
[17] = biological target: Mitogen-activated protein kinase kinase kinase kinase 2 (Homo sapiens) (UniProt Q12851); assay: Inhibition of GCK conserved Lys2 (DIKGANLLLTLQGDVK) in human PBMC at 0.1 uM

Sequence of Serine/threonine-protein kinase Sgk3 (Homo sapiens) (Q96BR1 whole entry): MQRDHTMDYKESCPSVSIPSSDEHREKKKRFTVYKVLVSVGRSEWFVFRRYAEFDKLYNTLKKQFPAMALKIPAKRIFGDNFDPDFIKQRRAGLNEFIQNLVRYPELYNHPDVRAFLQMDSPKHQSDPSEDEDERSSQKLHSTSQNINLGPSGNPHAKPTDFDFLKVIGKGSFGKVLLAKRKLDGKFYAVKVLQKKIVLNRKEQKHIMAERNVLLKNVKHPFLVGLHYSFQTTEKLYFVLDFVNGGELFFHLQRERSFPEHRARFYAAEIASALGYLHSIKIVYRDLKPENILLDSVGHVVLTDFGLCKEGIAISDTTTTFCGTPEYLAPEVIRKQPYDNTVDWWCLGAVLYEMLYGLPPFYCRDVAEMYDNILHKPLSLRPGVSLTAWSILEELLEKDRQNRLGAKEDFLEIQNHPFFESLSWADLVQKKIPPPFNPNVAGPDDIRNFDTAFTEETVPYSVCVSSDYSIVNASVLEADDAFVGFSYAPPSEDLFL
Sequence of Serine/threonine-protein kinase SIK3 (Homo sapiens) (Q9Y2K2 whole entry, looked up): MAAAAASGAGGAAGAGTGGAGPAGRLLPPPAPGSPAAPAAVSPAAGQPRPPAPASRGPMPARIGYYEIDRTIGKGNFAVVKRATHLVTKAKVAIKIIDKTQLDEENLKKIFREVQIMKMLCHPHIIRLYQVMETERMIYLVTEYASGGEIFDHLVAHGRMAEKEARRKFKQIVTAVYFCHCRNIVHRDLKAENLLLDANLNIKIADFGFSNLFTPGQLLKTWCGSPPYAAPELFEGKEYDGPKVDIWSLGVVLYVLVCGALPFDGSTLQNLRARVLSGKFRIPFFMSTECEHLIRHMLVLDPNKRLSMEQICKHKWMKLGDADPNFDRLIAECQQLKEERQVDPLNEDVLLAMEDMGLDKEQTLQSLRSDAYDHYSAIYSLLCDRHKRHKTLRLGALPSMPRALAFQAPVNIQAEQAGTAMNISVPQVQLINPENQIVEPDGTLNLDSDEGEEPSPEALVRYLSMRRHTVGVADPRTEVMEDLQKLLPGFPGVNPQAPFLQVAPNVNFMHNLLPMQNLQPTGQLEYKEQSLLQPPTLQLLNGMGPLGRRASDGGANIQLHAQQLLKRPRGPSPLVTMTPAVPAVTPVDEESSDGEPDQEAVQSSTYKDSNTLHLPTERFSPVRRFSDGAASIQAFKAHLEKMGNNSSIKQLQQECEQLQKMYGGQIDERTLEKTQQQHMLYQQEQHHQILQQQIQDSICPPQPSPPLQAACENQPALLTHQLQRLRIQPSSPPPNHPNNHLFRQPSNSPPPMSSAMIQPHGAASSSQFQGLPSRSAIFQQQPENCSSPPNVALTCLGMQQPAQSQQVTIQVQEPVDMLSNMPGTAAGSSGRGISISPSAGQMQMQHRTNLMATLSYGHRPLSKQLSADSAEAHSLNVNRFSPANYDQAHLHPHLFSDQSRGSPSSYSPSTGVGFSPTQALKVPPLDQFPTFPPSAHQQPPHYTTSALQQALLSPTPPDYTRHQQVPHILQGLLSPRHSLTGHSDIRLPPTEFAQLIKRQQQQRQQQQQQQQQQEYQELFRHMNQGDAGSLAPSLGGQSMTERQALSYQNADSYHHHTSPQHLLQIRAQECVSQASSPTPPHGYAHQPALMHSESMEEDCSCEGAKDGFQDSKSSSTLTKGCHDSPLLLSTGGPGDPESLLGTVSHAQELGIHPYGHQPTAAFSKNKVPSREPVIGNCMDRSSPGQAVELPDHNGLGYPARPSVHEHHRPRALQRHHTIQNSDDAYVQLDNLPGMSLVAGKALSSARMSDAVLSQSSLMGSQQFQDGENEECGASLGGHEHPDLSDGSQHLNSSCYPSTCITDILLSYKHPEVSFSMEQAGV
Sequence of Leucine-rich repeat serine/threonine-protein kinase 2 (Q5S007 whole entry G2019S): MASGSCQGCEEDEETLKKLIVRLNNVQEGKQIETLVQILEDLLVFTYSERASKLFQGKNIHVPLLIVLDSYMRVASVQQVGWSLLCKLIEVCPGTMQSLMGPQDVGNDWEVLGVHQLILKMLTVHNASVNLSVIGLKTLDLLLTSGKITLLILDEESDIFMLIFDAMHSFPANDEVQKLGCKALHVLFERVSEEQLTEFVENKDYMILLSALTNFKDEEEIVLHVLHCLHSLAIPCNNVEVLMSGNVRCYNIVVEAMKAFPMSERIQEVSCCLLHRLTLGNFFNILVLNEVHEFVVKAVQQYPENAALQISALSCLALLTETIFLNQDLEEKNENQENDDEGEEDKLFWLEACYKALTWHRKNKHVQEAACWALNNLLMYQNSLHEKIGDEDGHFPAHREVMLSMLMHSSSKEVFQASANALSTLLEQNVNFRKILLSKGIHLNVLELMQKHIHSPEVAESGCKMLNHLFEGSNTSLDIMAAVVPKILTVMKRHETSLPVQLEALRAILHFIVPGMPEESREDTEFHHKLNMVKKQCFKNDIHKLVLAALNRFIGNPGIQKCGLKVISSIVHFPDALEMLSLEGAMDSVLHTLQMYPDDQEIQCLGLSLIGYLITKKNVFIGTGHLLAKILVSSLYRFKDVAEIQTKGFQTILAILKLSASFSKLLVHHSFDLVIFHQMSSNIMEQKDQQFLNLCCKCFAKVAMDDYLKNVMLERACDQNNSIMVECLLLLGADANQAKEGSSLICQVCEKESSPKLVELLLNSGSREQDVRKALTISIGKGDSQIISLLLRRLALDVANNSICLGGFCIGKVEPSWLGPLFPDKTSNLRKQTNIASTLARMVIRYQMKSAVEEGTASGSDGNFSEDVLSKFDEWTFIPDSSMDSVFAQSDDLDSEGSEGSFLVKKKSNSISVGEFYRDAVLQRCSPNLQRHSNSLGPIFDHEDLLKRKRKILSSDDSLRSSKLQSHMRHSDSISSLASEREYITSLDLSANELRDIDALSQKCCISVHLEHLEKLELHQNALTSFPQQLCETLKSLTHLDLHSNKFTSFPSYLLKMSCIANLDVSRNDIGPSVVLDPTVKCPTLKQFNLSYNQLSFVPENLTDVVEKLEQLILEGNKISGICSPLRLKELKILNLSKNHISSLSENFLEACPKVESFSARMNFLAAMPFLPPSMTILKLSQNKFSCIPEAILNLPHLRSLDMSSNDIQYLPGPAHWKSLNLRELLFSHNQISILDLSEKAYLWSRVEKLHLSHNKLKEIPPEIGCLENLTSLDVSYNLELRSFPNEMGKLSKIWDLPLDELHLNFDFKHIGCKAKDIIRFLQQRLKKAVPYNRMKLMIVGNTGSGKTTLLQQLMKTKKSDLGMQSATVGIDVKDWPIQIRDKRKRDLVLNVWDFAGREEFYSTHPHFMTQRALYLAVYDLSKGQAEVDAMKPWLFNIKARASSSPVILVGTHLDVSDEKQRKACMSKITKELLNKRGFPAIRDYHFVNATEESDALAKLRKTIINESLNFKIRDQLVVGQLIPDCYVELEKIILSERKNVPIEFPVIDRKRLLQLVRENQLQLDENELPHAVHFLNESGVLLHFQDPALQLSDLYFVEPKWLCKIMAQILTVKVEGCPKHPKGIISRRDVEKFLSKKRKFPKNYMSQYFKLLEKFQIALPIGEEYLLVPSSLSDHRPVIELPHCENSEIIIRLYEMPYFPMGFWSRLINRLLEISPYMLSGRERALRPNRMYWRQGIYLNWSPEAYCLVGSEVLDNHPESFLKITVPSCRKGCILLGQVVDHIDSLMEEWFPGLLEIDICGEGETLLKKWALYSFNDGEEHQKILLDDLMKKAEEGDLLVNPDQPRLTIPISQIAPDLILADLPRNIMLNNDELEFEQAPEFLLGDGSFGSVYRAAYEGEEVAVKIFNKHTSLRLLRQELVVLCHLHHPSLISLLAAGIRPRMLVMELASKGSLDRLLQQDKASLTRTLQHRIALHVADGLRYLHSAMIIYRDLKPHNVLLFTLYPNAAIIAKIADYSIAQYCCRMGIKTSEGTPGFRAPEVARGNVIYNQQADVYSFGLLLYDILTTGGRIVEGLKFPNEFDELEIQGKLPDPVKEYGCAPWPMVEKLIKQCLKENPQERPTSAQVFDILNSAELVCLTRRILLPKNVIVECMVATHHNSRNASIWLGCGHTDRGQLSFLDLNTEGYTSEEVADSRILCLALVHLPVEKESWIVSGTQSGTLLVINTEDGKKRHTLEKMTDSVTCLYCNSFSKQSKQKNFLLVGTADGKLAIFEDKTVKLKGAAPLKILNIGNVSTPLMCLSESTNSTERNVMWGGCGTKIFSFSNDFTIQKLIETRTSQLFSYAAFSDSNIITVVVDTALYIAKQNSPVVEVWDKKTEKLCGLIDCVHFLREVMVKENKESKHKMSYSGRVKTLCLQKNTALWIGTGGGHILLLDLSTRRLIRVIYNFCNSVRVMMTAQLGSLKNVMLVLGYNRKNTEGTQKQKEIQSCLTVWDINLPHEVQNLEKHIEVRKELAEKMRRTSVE
Sequence of Dual specificity mitogen-activated protein kinase kinase 7 (Homo sapiens) (O14733 whole entry): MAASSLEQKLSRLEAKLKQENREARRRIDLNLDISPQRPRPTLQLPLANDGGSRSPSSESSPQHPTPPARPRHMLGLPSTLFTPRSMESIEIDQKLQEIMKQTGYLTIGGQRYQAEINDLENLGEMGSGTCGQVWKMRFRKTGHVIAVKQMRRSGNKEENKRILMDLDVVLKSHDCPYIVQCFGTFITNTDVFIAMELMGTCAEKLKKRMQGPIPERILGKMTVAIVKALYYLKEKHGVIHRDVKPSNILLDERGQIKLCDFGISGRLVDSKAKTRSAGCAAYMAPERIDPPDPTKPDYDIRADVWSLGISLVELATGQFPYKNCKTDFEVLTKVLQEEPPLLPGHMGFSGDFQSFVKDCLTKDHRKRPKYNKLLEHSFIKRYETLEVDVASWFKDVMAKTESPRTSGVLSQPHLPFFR
Sequence of Serine/threonine-protein kinase Nek7 (Homo sapiens) (Q8TDX7 whole entry, looked up): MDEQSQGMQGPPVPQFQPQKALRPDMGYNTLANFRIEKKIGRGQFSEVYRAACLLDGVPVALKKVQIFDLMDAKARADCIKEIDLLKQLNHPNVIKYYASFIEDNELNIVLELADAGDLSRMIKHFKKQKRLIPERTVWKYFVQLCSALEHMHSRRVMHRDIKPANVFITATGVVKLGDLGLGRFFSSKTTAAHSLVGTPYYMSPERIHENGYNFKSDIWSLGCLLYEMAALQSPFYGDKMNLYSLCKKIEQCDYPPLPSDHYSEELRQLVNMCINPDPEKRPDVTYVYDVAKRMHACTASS

CC(C)n1cc(-c2cc(-c3ccc(CN4CCOCC4)cc3)cnc2N)nn1
IC50 [1]: 920 nM
inhibition [2]: 17.5%
inhibition [3]: 18.6%
inhibition [4]: -9.5%
inhibition [5]: 17.1%
inhibition [6]: 4%
inhibition [7]: -2.2%
inhibition [8]: -3.8%
inhibition [9]: 23.5%
inhibition [10]: 21.9%
inhibition [11]: -6.4%
inhibition [12]: 14.7%
inhibition [13]: 5.6%
inhibition [14]: 7.6%
inhibition [15]: 12.7%
inhibition [16]: -0.4%
inhibition [17]: 10.9%
